Measured values from publication PMC6627510, “The Role of a Key Amino Acid Position in Species-Specific Proteinaceous dUTPase Inhibition” (Biomolecules, 2019).

How the values were obtained:
Type in all cases: binding
[1] = target: T1, E. coli dUTPase (EcDUT) (Escherichia coli, UniProt P06968, Q94R/F146W, form not given); assay: tryptophan fluorescence; settings: 3 µM enzyme, 100 µM dUPNPP, 5 mM MgCl2, pH 7.5, 293 K; active site
T1 construct: gene dut; expressed in E. coli BL21(DE3) Rosetta; homotrimer; C-terminal residues R150, Q151

[2] = target: T2, E. coli dUTPase (EcDUT) (Escherichia coli, UniProt P06968, F146W, form not given); assay: tryptophan fluorescence; acrylamide quenching; settings: 3 µM enzyme, 100 µM dUPNPP, 5 mM MgCl2, pH 7.5, 293 K; active site; quenching with 4 µM enzyme, 1.5 mM dUPNPP
T2 construct: gene dut; expressed in E. coli BL21(DE3) Rosetta; homotrimer; C-terminal residues R150, Q151

[3] = target: T3, E. coli dUTPase (EcDUT) (Escherichia coli, UniProt P06968, Q94H/F146W, form not given); assay: tryptophan fluorescence; acrylamide quenching; settings: 3 µM enzyme, 100 µM dUPNPP, 5 mM MgCl2, pH 7.5, 293 K; active site; quenching with 4 µM enzyme, 1.5 mM dUPNPP
T3 construct: gene dut; expressed in E. coli BL21(DE3) Rosetta; homotrimer; C-terminal residues R150, Q151

[4] = target: T4, E. coli dUTPase (EcDUT) (Escherichia coli, UniProt P06968, Q94H, form not given); assay: X-ray crystallography, […] Å; settings: 5 mM dUPNPP, Mg2+, pH 7.5; active site; non-hydrolysable substrate analogue
T4 construct: gene dut; expressed in E. coli BL21(DE3) Rosetta; homotrimer; C-terminal residues R150, Q151

Q: What does the source list for O=c1ccn([C@H]2C[C@H](O)[C@@H](COP(=O)(O)NP(=O)(O)OP(=O)(O)O)O2)c(=O)[nH]1 [dUPNPP]?
A: tryptophan fluorescence [1]: allowed us to follow substrate analogue and Stl binding of the three arm-tryptophan mutant enzyme; tryptophan fluorescence; acrylamide quenching [2]: allowed us to follow substrate analogue and Stl binding of the three arm-tryptophan mutant enzyme; tryptophan fluorescence; acrylamide quenching [3]: allowed us to follow substrate analogue and Stl binding of the three arm-tryptophan mutant enzyme; X-ray crystallography, 1.8 Å [4]: we crystallized the EcDUT^Q93H dUTPase mutant in the presence of the non-hydrolysable substrate analogue dUPNPP
